We go through eight compounds from US5607929A, “Antiviral dibenzothiazepinone derivatives” (Glaxo Wellcome Inc., priority 1991, dated 1997).

This test deals with HIV. The test can be described thus: HIV (MT4 assay), in vitro antiviral activity. The format is cell-based.

Read-outs that look alike come from different tables or passages of the source.

“4-fluorodibenzothiazepin-11(10H)-one-5,5-dioxide [15(iv)]” gave an IC50 of 1800 nM.
Take `O=C1Nc2ccccc2Sc2c(F)cccc21` [14(iv), 4-Fluoro-10,11-dihydrobenzo[b,f][1,4]thiazepin-11-one]: under “Human immunodeficiency virus 1”, the IC50 amounted to 1100 nM.
`CN1C(=O)c2cccc(F)c2Sc2ccccc21` [17(i), 4-Fluoro-10-methyl-10,11-dihydrobenzo[b,f][1,4] thiazepin-11-one] came in with an IC50 (Human immunodeficiency virus 1) of 700 nM.
The same measure, in the same setting: the figure for `O=C1Nc2ccccc2S(=O)(=O)c2ccccc21` [Example 5, 10,11-Dihydrodibenzo[b,f][1,4]thiazepin-11-one-5,5-dioxide] is 13000 nM.
In turn, `O=C1Nc2ccccc2Sc2c1cccc2C(F)(F)F` [Example 7, 4-Trifluoromethyl-10,11-dihydrodibenzo[b,f][1,4]thiazepin-11-one] came in with an IC50 (Human immunodeficiency virus 1) of 2500 nM.
Consider `CN1C(=O)c2cccc(C(F)(F)F)c2Sc2ccccc21` [Example 10, 10-Methyl-4-trifluoromethyl-10,11-dihydrodibenzo[b,f][1,4]thiazepin-11-one], for which the midpoint of inhibition (Human immunodeficiency virus 1), the IC50, lay at 2800 nM.
`CSc1cccc2c1Sc1ccccc1NC2=O` [Example 19, 4-Thiomethyl-10,11-dihydrodibenzo[b,f][1,4]thiazepin-11-one] displayed an IC50 (Human immunodeficiency virus 1) of 2300 nM. The IC50 values of the last two compounds are within 1.5-fold of each other.
Regarding `COc1ccc2c(c1)S(=O)(=O)c1ccccc1C(=O)N2` [Example 22, 7-Methoxy-10,11-dihydrodibenzo[b,f][1,4]thiazepin-11-one-5,5-dioxide], the half-maximal inhibitory concentration (IC50) (Human immunodeficiency virus 1) worked out at 12800 nM.

As usually defined, the IC50 is the concentration that inhibits the measured activity by half.
